Measured values taken from patent US20240082260A1, “INHIBITOR OF PROTEIN KINASE D FOR USE IN PREVENTION OR TREATMENT OF HYPERLIPIDEMIA” (priority 2021, published 2024).

How the values were obtained:
[1] = molecular target: T1, PKD2 (Homo sapiens, UniProt Q9BZL6); test: In-vitro kinase assay: PKD2 phosphorylation of APOA4; type: biochemical; conditions: recombinant human PKD2 and APOA4, western blot, FIG. 5H
T1 construct: purchased Abcam ab60875
T1 sequence (Q9BZL6 1-878): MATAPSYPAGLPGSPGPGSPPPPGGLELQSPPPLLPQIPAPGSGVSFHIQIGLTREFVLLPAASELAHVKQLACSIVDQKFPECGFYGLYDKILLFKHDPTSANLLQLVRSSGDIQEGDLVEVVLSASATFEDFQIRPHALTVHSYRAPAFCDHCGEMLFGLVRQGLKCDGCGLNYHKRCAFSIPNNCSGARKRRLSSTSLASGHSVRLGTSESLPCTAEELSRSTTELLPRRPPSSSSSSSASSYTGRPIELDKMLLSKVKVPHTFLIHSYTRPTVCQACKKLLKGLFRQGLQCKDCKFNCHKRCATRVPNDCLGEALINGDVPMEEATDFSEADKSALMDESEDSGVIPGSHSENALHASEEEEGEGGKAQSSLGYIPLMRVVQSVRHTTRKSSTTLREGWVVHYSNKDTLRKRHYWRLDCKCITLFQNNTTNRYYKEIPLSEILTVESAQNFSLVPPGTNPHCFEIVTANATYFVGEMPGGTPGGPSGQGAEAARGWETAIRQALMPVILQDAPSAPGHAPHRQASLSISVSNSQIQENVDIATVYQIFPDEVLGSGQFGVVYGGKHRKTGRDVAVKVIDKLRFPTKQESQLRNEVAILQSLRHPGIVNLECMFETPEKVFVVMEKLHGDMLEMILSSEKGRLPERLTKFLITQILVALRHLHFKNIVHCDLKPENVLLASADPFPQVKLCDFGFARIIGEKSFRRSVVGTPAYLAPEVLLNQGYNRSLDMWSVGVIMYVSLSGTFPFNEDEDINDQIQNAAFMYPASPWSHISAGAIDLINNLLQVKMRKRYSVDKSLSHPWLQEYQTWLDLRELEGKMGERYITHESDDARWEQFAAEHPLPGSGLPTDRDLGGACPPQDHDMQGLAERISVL
Protocol: Recombinant human proteins used for the study, PKD2 and APOA4, were both purchased from Abcam. […] Then, western blot was performed and incubated with a primary antibody against the phosphorylated motif (RxxS/T*) (Cell Signaling).

[2] = system: phosphorylated PKD2; conditions: oral 10 mg/kg once a day, HFD
Protocol: (§1) PKD inhibitor CRT0066101 was dissolved in water (10 mg/kg) and administered orally to the mice by daily gavage, while the control mice were gavaged with water. Mice were maintained on the specified diets and had ab libitum access to food and water. C57BL/6 mice were administered CRT inhibitor treatment at 4-weeks of age, while for the rescue experiment, inhibitor was given under the same circumstances but treatment started only after 7 weeks of HFD feeding. Intestinal barrier permeability was further assessed 1 hour after oral gavage of FITC-Dextran 4.
(§2) Proteins from tissues and cell culture were extracted with RIPA buffer supplemented with phosphatase and protease inhibitor (PPI, Thermo Fisher Scientific). Protein concentration was measured by Pierce™ BCA Protein Assay Kit (Thermo Fisher Scientific) following the manufacturer's protocol. Reduced protein extracts were separated on 10% SDS-PAGE gels by electrophoresis and transferred to PVDF membranes under wet transfer. Membranes were blocked in 5% (w/v) milk in TBS-T before overnight probing with indicated primary antibodies at 4° C., followed by TBS-T washes and incubation with corresponding secondary antibody.

[3] = system: male C57BL/6 mice on HFD; test: Oral PKD inhibitor in HFD-fed C57BL/6 mice (diet-induced obesity and diabetes); type: in vivo, mouse
Protocol: Mice body weight development was closely monitored and reported here on a weekly basis when mice were on a specified diet. All experiments were performed in male mice.
as §1
Energy expenditure, food intake, and activity measurements were obtained in a PhenoMaster (TSE Systems) as previously described (El-Merahbi, Viera et al., 2020, Trujillo Viera, El-Merahbi et al., 2016). Briefly, mice were kept in separate metabolic cages with unlimited access to water and to the specified diet. After 48 hours of acclimation, data was collected every 10 min including photobeam breaks, oxygen consumption, carbon dioxide dissipation, and food and water consumption. Results in bars represent the average of each night/day cycle.
A glucose tolerance test (GTT) was performed after overnight fasting. Mice blood glucose was assessed before and 15, 30, 60, 90, and 120 minutes after intraperitoneal injection of glucose (2 g/kg). For the Insulin tolerance test (ITT), the same measurements were performed after 4 hours of fasting and intraperitoneal injection of 0.5 U/kg of recombinant insulin. For glucose measurements, one blood drop was drawn from the tail tip into a test strip and measured with a glucometer (Accu-Chek® Roche).
Lipids tolerance test was performed as described previously (Wang, Rong et al., 2016b). Briefly, overnight fasted mice were gavaged with olive oil (10 μL/g body weight). Blood was collected at indicated times for measurement of serum triglycerides content. For lipids absorption under tyloxapol treatment, 250 μg/g of body weight were i.p. injected to mice 30 minutes before the gavage of olive oil 5 μL/g body weight.
Liver triglycerides were measured by homogenization of 50 mg of liver in 500 uL of lysis buffer and lipids extraction in methanol:chloroform, phase extraction and evaporation. The lipids were redissolved in DMSO and triglycerides quantified with the mentioned kit and according to the manufacturers' instructions.
The bedding of single-caged mice was collected and the ingested food ingestion from the individual mice was assessed. All the stools were manually collected. After overnight dissecation at 60° C., the samples were weighted and frozen for further analysis. The amount of feces produced per mouse was compared to the amount of food consumed and the weight gain. About 3 g of dried feces material were homogenized and 1 g was pressed into a tablet and accurately weighted. Calorie content from feces and diet was measured in duplicates in a 6400 Automatic Isoperibol calorimeter (Parr Instrument Company). To analyze energy excreted, the amount of energy in feces was compared to the amount of energy ingested (the product between grams of food and caloric content of the food). Lipids extraction from feces was performed as previously described (Kraus, Yang et al., 2015).
as §2

[4] = system: PKD 1/2; conditions: oral, dose 8 times higher than used here, cited from earlier work

CC[C@@H](N)CNc1ccnc(-c2cc(-c3cnn(C)c3)ccc2O)n1 [CRT0066101]
PKD2-dependent phosphorylation of APOA4 [1]: abrogates PKD2-dependent phosphorylation | PKD activity in liver or adipose tissue [2]: no similar decrease was observed | intestinal PKD activity (phosphorylated PKD2 in jejunum) ([2]; 13 weeks, FIG. 6C): attenuated | accumulation of TG in the liver ([3]; oral 10 mg/kg daily, HFD): did not affect | brown adipose tissue morphology ([3]; oral 10 mg/kg daily, HFD): promoted healthier, multilocular brown adipose tissue | energy expenditure ([3]; oral 10 mg/kg daily, HFD): did not affect | food consumption ([3]; oral 10 mg/kg daily, HFD): did not affect | markers of liver function ([3]; oral 10 mg/kg daily, HFD): did not affect | mobility ([3]; oral 10 mg/kg daily, HFD): did not affect | body weight gain ([3]; oral 10 mg/kg daily, HFD, 13 weeks, vs water, FIG. 6G): significantly lower body weight gain | levels of APOA4 in the intestine (jejunum, western blot) ([3]; oral 10 mg/kg daily, HFD, 13 weeks, FIG. 6F): increased levels of APOA4 | fecal energy excretion ([3]; oral 10 mg/kg daily, HFD, FIG. 6D): greater fecal energy excretion | intestinal TG absorption (lipids tolerance test after olive oil gavage) ([3]; oral 10 mg/kg daily, after 9 weeks HFD, FIG. 6E): decreased intestinal TG absorption | glucose tolerance (GTT) ([3]; oral 10 mg/kg daily, after 10 weeks of treatment and HFD, FIG. 6H): improved | insulin tolerance (ITT) ([3]; oral 10 mg/kg daily, after 11 weeks of treatment and HFD, FIG. 6I): improved | obesity induced by a high-fat diet (summary statement) ([3]; oral administration, mice, also said to prevent hyperlipidemia and diabetes and improve microflora): significantly reduces obesity induced by a high-fat diet | reduction in PKD 1/2 activation ([4]; pancreatic tumors): 50% | time of highest concentrations in pancreatic tumors [4]: 2 h
